Where a name gives a salt, the structure may show the parent alone.
The compounds below were run on XBP1s-luc 293 LUC (assay: cellular PD assay, XBP1s-LUC reporter (Example 903)). Details: Table 1; read-out: XBP1s-luc 293 LUC (IC50).
Type: cell-based
Outline: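 Cellular IRE1α pathway activity was quantified from the luciferase signal of an XBP1-Luc reporter, where the luciferase fusion is in frame and expressed only from the spliced XBP1 transcript.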

In order of falling IC50:
1. CCCS(=O)(=O)Nc1cccc2c(Oc3ncccc3-c3ccnc(N[C@H]4CCCNC4)n3)c(F)ccc12 [Example 305, (S)—N-(6-Fluoro-5-((3-(2-(piperidin-3-ylamino)pyrimidin-4-yl)pyridin-2-yl)oxy)naphthalen-1-yl)propane-1-sulfonamide]  481 nM
2. Cc1ccc2c(NC(=O)C3CCC3)cccc2c1Oc1ncccc1-c1ccnc(N[C@H]2CCCNC2)n1 [Example 131, (S)—N-(6-Methyl-5-((3-(2-(piperidin-3-ylamino)pyrimidin-4-yl)pyridin-2-yl)oxy)naphthalen-1-yl)cyclobutanecarboxamide]  153 nM
3. Cc1ccc2c(NC(=O)[C@H]3C[C@@H]3F)cccc2c1Oc1ncccc1-c1ccnc(N[C@H]2CCCNC2)n1 [Example 235, (1R,2S)-2-Fluoro-N-(6-methyl-5-((3-(2-(((S)-piperidin-3-yl)amino)pyrimidin-4-yl)pyridin-2-yl)oxy)naphthalen-1-yl)cyclopropane-1-carboxamide]  145 nM
4. Cc1ccc2c(NC(=O)CC(C)C)cccc2c1Oc1ncccc1-c1ccnc(N[C@H]2CCCNC2)n1 [Example 188, (S)-3-Methyl-N-(6-methyl-5-((3-(2-(piperidin-3-ylamino)pyrimidin-4-yl)pyridin-2-yl)oxy)naphthalen-1-yl)butanamide]  141 nM
5. Cc1ccc2c(NC(=O)C3CC(F)(F)C3)cccc2c1Oc1ncccc1-c1ccnc(N[C@H]2CCCNC2)n1 [Example 219, (S)-3,3-Difluoro-N-(6-methyl-5-(3-(2-(piperidin-3-ylamino)pyrimidin-4-yl)pyridin-2-yloxy)naphthalen-1-yl)cyclobutanecarboxamide]  119 nM
6. Cc1nc(CNc2cccc3c(Oc4ncccc4-c4ccnc(N[C@@H]5CNC[C@H](C)C5)n4)c(C)ccc23)cs1 [Example 323, 4-(2-((2-Methyl-5-(((2-methylthiazol-4-yl)methyl)amino)naphthalen-1-yl)oxy)pyridin-3-yl)-N-((3S,5R)-5-methylpiperidin-3-yl)pyrimidin-2-amine]  88.9 nM
7. CCCS(=O)(=O)Nc1c(F)ccc2c(Oc3ncccc3-c3ccnc(N[C@@H]4CNC[C@@H](F)C4)n3)c(C)ccc12 (single isomer, unassigned) [Example 328]  15.2 nM
8. Cc1ccc2c(NS(=O)(=O)Cc3ccc(Cl)cc3)c(F)ccc2c1Oc1ncccc1-c1ccnc(N[C@H]2CCCNC2)n1 [Example 209, (S)-1-(4-Chlorophenyl)-N-(2-fluoro-6-methyl-5-((3-(2-(piperidin-3-ylamino)pyrimidin-4-yl)pyridin-2-yl)oxy)naphthalen-1-yl)methanesulfonamide]  8.04 nM

Same assay, conditions: Table 2; read-out: XBP1s-luc 293 LUC (IC50)

In order of rising IC50:
1. Cc1ccc2c(NS(=O)(=O)Cc3ccc(C#N)cc3)c(F)ccc2c1Oc1ncccc1-c1ccnc(N[C@H]2CCCNC2)n1 [Example 426, (S)-1-(4-Cyanophenyl)-N-(2-fluoro-6-methyl-5-((3-(2-(piperidin-3-ylamino)pyrimidin-4-yl)pyridin-2-yl)oxy)naphthalen-1-yl)methanesulfonamide hydrochloride]  5 nM
2. Cc1ccc2c(NS(=O)(=O)N(C)CC(F)(F)F)c(F)ccc2c1Oc1ncccc1-c1ccnc(N[C@@H]2CNC[C@@H](F)C2)n1 (single isomer, unassigned) [Example 500, hydrochloride]  8.7 nM
3. Cc1ccc2c(NS(=O)(=O)CCC(F)(F)F)cccc2c1Oc1ncccc1-c1ccnc(N[C@@H]2CNC[C@H](C)C2)n1 [Example 481, 3,3,3-Trifluoro-N-(6-methyl-5-((3-(2-(((3S,5R)-5-methylpiperidin-3-yl)amino)pyrimidin-4-yl)pyridin-2-yl)oxy)naphthalen-1-yl)propane-1-sulfonamide]  70 nM
4. Cc1cc(NS(=O)(=O)CCC(F)(F)F)c2ccccc2c1Oc1ncccc1-c1ccnc(N[C@H]2CCCNC2)n1 [Example 478, (S)-3,3,3-Trifluoro-N-(3-methyl-4-((3-(2-(piperidin-3-ylamino)pyrimidin-4-yl)pyridin-2-yl)oxy)naphthalen-1-yl)propane-1-sulfonamide]  118 nM

Reference: patent US10968203B2, “Pyrimidinyl-pyridyloxy-naphthyl compounds and methods of treating IRE1-related diseases and disorders” (Genentech, Inc., priority 2017, dated 2021)
